# According to US8357385B2, “Combination therapy for the treatment of bacterial infections” (Interface Biologics Inc., priority 2008, dated 2013):
# Where two headings read alike, the source gives them in different places. Peptide text beside a SMILES is read from it.
# Key:
# Type in all cases: cell-based
# P. Auregenosa = experiment: organism not typed
# Method: (§1) Broth dilution method was used to measure quantitatively the in vitro activity of an antimicrobial agent against a given bacterial isolate. First, a series of tubes/wells were prepared with a broth medium to which various concentrations of the antimicrobial agents were added. The tubes/wells were then inoculated with standardized suspension of the test organism. After overnight incubation at 35±2° C., the tests were examined and the minimum inhibitory concentration (MIC) was determined. The procedures were performed under aseptic conditions. Stock culture: Stock cultures were maintained in Mueller Hinton Broth containing 15% Glycerol and stored at −80° C. Stock cultures were sub-cultured on to Mueller Hinton Agar (MHA), and incubated overnight at 37° C. […] Washing of cells: the cells were washed with PBS (pH 7.1) by centrifuging at 3000 rpm for 10 minutes. A cell suspension in Mueller Hinton broth (MHB) having a turbidity equivalent to a 0.5 McFarland turbidity standard was prepared using a Beckman Coulter DU 800 Spectrophotometer measuring at 600 nm wavelength. This is a suspension containing approximately […] of microbe. The suspension was diluted in MH broth so that, after dilution, the tube contained approximately 5×10^6 CFU/mL, and after inoculation, each well contains approximately 5×10^5 CFU/mL. Broth dilution procedure: small volumes of MH broth dispensed in sterile, polystyrene, non-pyrogenic tissue culture plates, 96 well, flat bottoms with low evaporation lid were prepared (each well contained 0.1 mL of MH broth) followed by the final two fold dilutions of antimicrobial agent dispensed volumetrically into the broth. […] Inoculation: each well of a microdilution plate was inoculated. The purity of the inoculum suspension was checked by sub-culturing an aliquot on to MH agar plate. Colony counts on inoculum suspensions were performed periodically, to ensure that the final inoculum concentration was approximately […]. […] To prevent drying, each plate was sealed with parafilm and the plates were kept in a moist chamber while incubating at 37° C. overnight, in a shaking incubator. Determining MIC endpoints: The MIC is defined as the lowest concentration of an antimicrobial that will inhibit growth of a microorganism. The in plate dilution method the endpoint is detected by the unaided eye.
# S. Aureus = experiment: microbe, parasite or virus in culture
# Method: as §1
# C. Albicans = experiment: Broth dilution MIC against C. Albicans; settings: Candida albicans, Monotherapy, overnight incubation
# Method: Broth dilution method was used to measure quantitatively the in vitro activity of an antimicrobial agent against a given bacterial isolate. First, a series of tubes/wells were prepared with a broth medium to which various concentrations of the antimicrobial agents were added. The tubes/wells were then inoculated with standardized suspension of the test organism. After overnight incubation at 35±2° C., the tests were examined and the minimum inhibitory concentration (MIC) was determined. The procedures were performed under aseptic conditions. Stock culture: Stock cultures were maintained in Mueller Hinton Broth containing 15% Glycerol and stored at −80° C. Stock cultures were sub-cultured on to Mueller Hinton Agar (MHA), and incubated overnight at 37° C. […] Washing of cells: the cells were washed with PBS (pH 7.1) by centrifuging at 3000 rpm for 10 minutes. A cell suspension in Mueller Hinton broth (MHB) having a turbidity equivalent to a 0.5 McFarland turbidity standard was prepared using a Beckman Coulter DU 800 Spectrophotometer measuring at 600 nm wavelength. This is a suspension containing approximately […] of microbe. The suspension was diluted in MH broth so that, after dilution, the tube contained approximately 5×10^6 CFU/mL, and after inoculation, each well contains approximately 5×10^5 CFU/mL. Broth dilution procedure: small volumes of MH broth dispensed in sterile, polystyrene, non-pyrogenic tissue culture plates, 96 well, flat bottoms with low evaporation lid were prepared (each well contained 0.1 mL of MH broth) followed by the final two fold dilutions of antimicrobial agent dispensed volumetrically into the broth. […] Inoculation: each well of a microdilution plate was inoculated. The purity of the inoculum suspension was checked by sub-culturing an aliquot on to MH agar plate. Colony counts on inoculum suspensions were performed periodically, to ensure that the final inoculum concentration was approximately 5×10^6 CFU/mL. […] The in plate dilution method the endpoint is detected by the unaided eye.
# E. coli = experiment: microbe, parasite or virus in culture
# Method: as §1
# [1] = Monotherapy, P. Auregenosa, broth dilution, overnight incubation, read-out: MIC
# [2] = Staphylococcus aureus, Monotherapy, S. Aureus, broth dilution, overnight incubation, read-out: MIC
# [3] = Monotherapy, P. Auregenosa, broth dilution, overnight incubation
# [4] = Monotherapy, E. coli, broth dilution, overnight incubation
# [5] = Escherichia coli, Monotherapy, E. coli, broth dilution, overnight incubation, read-out: MIC
Compound,MIC (P. Auregenosa; [1]) [µg/mL],MIC (S. Aureus; [2]) [µg/mL],MIC (C. Albicans) [µg/mL],MIC (E. coli; [5]) [µg/mL],further results
CC1(C)S[C@@H]2[C@H](NC(=O)[C@H](N)c3ccc(O)cc3)C(=O)N2[C@H]1C(=O)O [Amoxicillin],250 to 500,31.2 to 62.5,,,
Clc1ccc(COC(Cn2ccnc2)c2ccc(Cl)cc2Cl)c(Cl)c1 (stereo not drawn) [Miconazole],,45 to 90,1.4 to 2.8,,
"CC[C@H](C)[C@H](N)C1=N[C@H](C(=O)N[C@@H](CC(C)C)C(=O)N[C@H](CCC(=O)O)C(=O)N[C@H](C(=O)N[C@H]2CCCCNC(=O)[C@H](CC(N)=O)NC(=O)[C@@H](CC(=O)O)NC(=O)[C@H](Cc3cnc[nH]3)NC(=O)[C@@H](Cc3ccccc3)NC(=O)[C@H]([C@@H](C)CC)NC(=O)[C@@H](CCCN)NC2=O)[C@@H](C)CC)CS1 [Bacitracin] (HELM PEPTIDE1{[CC[C@H](C)[C@H](N)C1=N[C@H](C(=O)[*:2])CS1].L.[dE].I.K.[NCCC[C@@H](N[*:1])C(=O)[*:2]].I.[dF].H.[dD].N}$PEPTIDE1,PEPTIDE1,5:R3-11:R2$$$V2.0)",,,,,MIC (P. Auregenosa): 4000 to 5000 µg/mL; MIC (S. Aureus): 35 to 40 µg/mL; MIC (E. coli): 1000 to 1250 µg/mL
CN[C@H](CC(C)C)C(=O)N[C@H]1C(=O)N[C@@H](CC(N)=O)C(=O)N[C@H]2C(=O)N[C@H]3C(=O)N[C@H](C(=O)N[C@H](C(=O)O)c4cc(O)cc(O)c4-c4cc3ccc4O)[C@H](O)c3ccc(c(Cl)c3)Oc3cc2cc(c3O[C@@H]2O[C@H](CO)[C@@H](O)[C@H](O)[C@H]2O[C@H]2C[C@](C)(N)[C@H](O)[C@H](C)O2)Oc2ccc(cc2Cl)[C@H]1O [Vancomycin],,,,,MIC (E. coli; Escherichia coli): 190 to 380 µg/mL
Polymixin B,,,,,"MIC (P. Auregenosa; [3]): 3.125 to 5.0 µg/mL; MIC (S. Aureus; Monotherapy, S. Aureus, broth dilution, overnight incubation): 62.5 to 100.0 µg/mL; MIC (E. coli; [4]): 7.8 to 10 µg/mL"
C[C@H]1[C@H](NC(=O)/C(=N\OC(C)(C)C(=O)O)c2csc(N)n2)C(=O)N1S(=O)(=O)O [Aztreonam],15.6 to 19,625 to 1250,,0.078 to 0.097,
[H]/N=C(\N/C(=N/[H])NCCCCCCNC(=N)NC(=N)Nc1ccc(Cl)cc1)Nc1ccc(Cl)cc1 [Chlorhexidine],4 to 5,3.12 to 4,3.12 to 4,3.13 to 4,
O=C(O)c1cn(C2CC2)c2cc(N3CCNCC3)c(F)cc2c1=O [Ciprofloxacin],0.156 to 0.25,0.156 to 0.2,> 2.5,0.005 to 0.0078,
Gentamicin,,,,,MIC (P. Auregenosa; [3]): 0.625 to 1.25 µg/mL; MIC (E. coli; [4]): 1.25 to 2.5 µg/mL
